Data on 7 molecules can be found in US8227408B2, “Leptin as an anti-amyloidogenic biologic and methods for delaying the onset and reducing Alzheimer's disease-like pathology” (Neurotez, Inc., priority 2005, dated 2012).

Test [1] concerns Neuro2a cells stably transfected with hyg-sa134 (SEAP-APP). The test can be described thus: Aβ production by Neuro2a cells stably transfected with hyg-sa134 (total Aβ in media, sandwich ELISA). Type of test: cell-based, mouse. Conditions: for Aβ production / levels of Aβ in the media (in words): 2 or 5 h treatment; for Neuro2a/SEAP-APP Aβ(% control): total Aβ in conditioned media, concentration (TOFA 200 μM, cerulenin 200 μM, etomoxir 40 μM, peptide YY (3-36) 25 μM, CNTF 25 μM, leptin 400 ng/ml), mean ± SEM, 4 experiments, NS = non-significant; for Neuro2a/SEAP-APP Aβ(% control) / Aβ production (in words): 5 h. The protocol: (§1) Neuro2a (mouse neuroblastoma) stably transfected with hyg-sa134, a pcDNA3.1/Hygro plasmid (Invitrogen, CA) modified to express a fusion protein of secreted alkaline phosphatase (SEAP) and a fragment of APP consisting of the C-terminal 134 amino acids (“CAPP134”) (SEQ ID NO:10) were maintained in culture as described ([…]) in the presence of 400 μg/ml of hygromycin. SEQ ID NO: 11 is the DNA sequence of the entire hygsa134 vector, which was derived from the pcDNA3.1/Hygro vector by genetic manipulation to insert the DNA sequences for SEAP and CAPP134. The SEAP-CAPP cDNA insert from hyg-sa134 was also subcloned into an adenoviral vector using the Adeno Vator system (Qbiogene, Calif.). The DNA sequence for SEAP (corresponding to nucleotides 981-2441 of hyg-sa134) (SEQ ID NO: 9) is located 5′ to the DNA sequence (SEQ ID NO: 12) coding for CAPP134 (SEQ ID NO: 10).
(§2) SY5Y and hyg-sa134-Neuro2a cells were treated at 80% confluency (see below). Primary neural cultures from mouse embryos were allowed to grow for 6-12 days following plating and prior to viral infection and treatments.
About 5 μg/ml or about 10 μg/ml water-soluble cholesterol was added to cultures for 2 or 5 hours. Water soluble cholesterol (Sigma-Aldrich, MO) is a solution made of cholesterol balanced with cyclodextrin CDX (40 mg cholesterol per gr CDX). For comparison, cultures were treated with the equivalent amount of the resin alone, which leads to depletion of cholesterol in the cultures (Simons et al., Proc Natl Acad Sci USA. 95:6460-4 (1998)).
(§3) About 100 ng/ml or about 400 ng/ml leptin (Harbor-UCLA, CA), was added in cell culture medium for 2 or 5 h. Cells were approximately 80% confluent at the time of treatment. Peptide YY (3-36) (Phoenix Pharmaceuticals, Inc., CA), and CNTF (Sigma-Aldrich, Mo.) were added at about 25 μM or 150 μM for the same incubation periods. TOFA, etomoxir (Research Biochemicals International, MA) and cerulenin (Sigma-Aldrich, Mo.) were used as described below.
(§4) For the determination of Aβ peptide several methodologies also were used. SY5Y cells in culture were metabolically labeled with ^35S-[Met] as described (Figueiredo-Pereira et al. J Neurochem. 72:1417-22 (1999)), followed by immunoprecipitation, resolution of the immunoprecipitates on SDS-PAGE, autoradiography, and densitometric analysis of the autoradiogram. Neuro2a cells were stably transfected with hyg-sa134 (K. Sambamurti, S. Carolina Medical Center, SC) and Aβ40 (SEQ ID NO: 4) plus Aβ42 (SEQ ID NO: 5) plus Aβ43 (SEQ ID NO: 6) (Total Aβ) in the medium then was quantified by sandwich ELISAs developed with 4G8 and 6 ε10 monoclonal antibodies (Signet, Mass.) as described (Figueiredo-Pereira et al., J Neurochem. 72:1417-22 (1999)). Commercially available ELISA kits (KMI Diagnostics, MN) were used for the separate determination of Aβ40 (SEQ ID NO:4) and Aβ42/43 (SEQ ID NO:5/SEQ ID NO:6) in formic acid extracts of mice brains. Flotillin was detected using monoclonal anti-flotillin-1 antibodies (BD Biosciences, CA). Actin was detected using monoclonal anti-actin antibodies (Research Diagnostics, Inc, NJ).
Human (SYSY) or mouse neuroblastoma cell-lines (Neuro2a) commonly are used to study amyloid β metabolism in vitro. Neuro2a cells are stably transfected with hyg-sa134 (SEQ ID NO: 11), a plasmid driving the expression of a recombinant fusion protein containing the human C-terminal fragment of APP of about 134 amino acids, CAPP134 (SEQ ID NO: 10). Here, 5Y5Y or Neuro2a cultures were treated for 2 or 5 h with about 100 ng/ml or about 400 ng/ml leptin (FIG. 4a, 4b). Similarly, primary neurons from embryonic rat brain, infected with an adenovirus to direct the expression of CAPP134 (SEQ ID NO:10) also were treated according to the same regimen. […]

For test [2], the system named is primary embryonic rat neurons infected with adenovirus. In words: Aβ production by primary embryonic rat neurons infected with adenovirus (SEAP-APP). It counts as cell-based. To be noted: total Aβ in conditioned media, 5 h; concentration (TOFA 200 μM, cerulenin 200 μM, etomoxir 40 μM, peptide YY (3-36) 25 μM, CNTF 25 μM, leptin 400 ng/ml); mean ± SEM; NS = non-significant.
Excerpt: (§5) Cell cultures, Treatments, Antibodies and Immunoassays. SY5Y cells (human neuroblastoma) were maintained in culture as described (Johnsingh et al., FEBS Lett. 465:53-8 (2000)). Primary neural cultures were obtained from ε16 rat embryonic cortex, as described (Shimoda et al., 1992. Brain Res. 586:319-31 (1992)). These were either grown as mixed cultures (Johnsingh et al., FEBS Lett. 465:53-8 (2000)) or grown under conditions that favor the isolation and proliferation of astrocytes (Takeshima et al., J Neurosci. 14:4769-79 (1994)).
as §1, §2
(§6) Human (SYSY) or mouse neuroblastoma cell-lines (Neuro2a) commonly are used to study amyloid β metabolism in vitro. Neuro2a cells are stably transfected with hyg-sa134 (SEQ ID NO: 11), a plasmid driving the expression of a recombinant fusion protein containing the human C-terminal fragment of APP of about 134 amino acids, CAPP134 (SEQ ID NO: 10). Here, 5Y5Y or Neuro2a cultures were treated for 2 or 5 h with about 100 ng/ml or about 400 ng/ml leptin (FIG. 4a, 4b). Similarly, primary neurons from embryonic rat brain, infected with an adenovirus to direct the expression of CAPP134 (SEQ ID NO:10) also were treated according to the same regimen.

The test system of test [3] is SY5Y cells. The test can be described thus: Aβ production by SY5Y cells. It counts as cell-based, human. To be noted: total Aβ in conditioned media, 5 h; concentration (TOFA 200 μM, cerulenin 200 μM, etomoxir 40 μM, peptide YY (3-36) 25 μM, CNTF 25 μM, leptin 400 ng/ml); mean ± SEM; NS = non-significant.
Excerpt: as §5, §2, §3, §4, §6

Test [4] has as its system SY5Y cells. The test can be described thus: 125I-Aβ uptake by SY5Y cells (apoE-dependent). Type of test: cell-based, human. Conditions: RAP 1 μM added together with Aβ or the Aβ/apoE complex. How it is done: Preparation of ApoE and binding with ^125I-Aβ. ApoE was isolated from the conditioned media of human embryonic kidney (HEK-293) cells stably-transfected with human apoE (having the ε3 allele or the ε4 allele) cDNA (Tezapsidis et al., FASEB J. 17:1322-1324 (2003)). These preparations, while usually poor in lipid, are fully functional for uptake experiments. ApoE then was pre-incubated with ^125I-Aβ overnight at 37° C. (Aβ/ApoE: 1/50 w/w) as described (Tezapsidis et al., FASEB J. 17:1322-1324 (2003)).
Aβ-uptake by SY5Y cells. Human ^125I-Aβ (iodinated at Tyr-10, Amersham Biosciences, IM 294) uptake was measured following addition of 0.1 nM ^125I-Aβ40 (SEQ ID NO: 4) to confluent SY5Y cells (60,000 cpm/ml) in the presence or absence of 100 ng/ml or 400 ng/ml leptin also included in a 24 h pre-incubation period. ^125I-Aβ was either added alone or was previously incubated with apoε3. In controls, Receptor Associated Protein (“RAP”, 1 μM) was added together with Aβ or the Aβ/apoE complex. RAP is an antagonist of a number of lipoprotein receptors (LaDu et al., Neurochem Int. 39:427-34 (2001)). After 24 h, the media were collected and subjected to scintillation counting for γ-Iradiation (Kang et al., 2000. J Clin Invest. 106:1159-66 (2000)). The amount of radioactivity was measured in both the trichloroacetic acid (10%) TCA pellets (representing intact Aβ) and the corresponding supernatants (representing degraded Aβ). 96.5±8.2% (mean±s.e.m., n=4 experiments, triplicate determinations) of the radioactivity found in the medium could be recovered in the TCA pellet and represented intact or oligomeric Aβ (not shown), when Aβ was pre-incubated with apoE.
The amount of TCA-precipitable radioactivity in the soluble fraction of cell lysates was compared to that in the total lysates, the ratio of which was typically about 0.8 to about 0.9 (not shown), to further verify that radioactivity was reduced in the media as a reflection of Aβ uptake by the cells, rather than due to non-specific binding to the extracellular surface of membranes or oligomerization/aggregation of Aβ.
In panel (a), Aβ uptake was measured in SY5Y cells following their treatment at 0 ng/ml, 100 ng/ml or 400 ng/ml leptin. Uptake also was measured in cells previously transfected with antisense DNA for PS1 as described (Tezapsidis et al., FASEB J. 17:1322-1324(2003)) (black). Uptake is expressed as the percentage of that observed with Aβ pre-incubated with apoε3 (medium gray) in the absence of leptin (first set of columns). […] Leptin induced a dose-dependent increase in Aβ uptake with a preference for apoε3 (medium gray) over apoε4 (light gray). In panel (b), SY5Y cells were pre-treated with […] cholesterol (+Chol) or normal medium (−Chol). Then Aβ uptake was measured following its preincubation with apoε3 (ε3) or apoε4 (ε4) in the absence (black) or the presence (gray) of about 400 ng/ml leptin. Cells were more resistant to taking-up Aβ when loaded with cholesterol. […] In panel (c), SY5Y cells were transiently transfected with SREBP-1 or SREBP-2 cDNA or an empty vector (Control). Then Aβ was measured in the medium by ELISAs (Figueiredo-Pereira et al., J Neurochem. 72:1417-22 (1999)) following treatment with (+) or without (−) leptin. […] In panel (d), Aβ uptake was measured in SY5Y cells prepared as in panel (c). Uptake was performed using Aβ/apoε3 complexes.

The mark [5] stands for this setting: 25 μM (equimolar concentrations), Table 1 cells.
The mark [6] stands for this setting: higher (150 μM) concentrations, not shown.

`C/C=C/C/C=C/CCC(=O)[C@H]1O[C@H]1C(N)=O` [Cerulenin, cerulenin]: in test [1], the “Aβ production / levels of Aβ in the media (in words)” value (“Aβ production / levels of Aβ” below) was “mimicked” and the “Neuro2a/SEAP-APP Aβ(% control)” value was 52 ± 12 % control. Also, the “Neurons/SEAPP-APP Aβ (% control)” value in test [2] is given as 66 ± 5 % control. Besides, the “SY5Y Aβ (% control)” value in test [3] was 65 ± 9, NS % control.

Turning to `CCOC(=O)[C@@]1(CCCCCCOc2ccc(Cl)cc2)CO1` [Etomoxir], in test [1], the “Aβ production / levels of Aβ” value is recorded as “increased Aβ production” and the “Neuro2a/SEAP-APP Aβ(% control)” value is given as 154 ± 14 % control. Besides, the “Neurons/SEAPP-APP Aβ (% control)” value in test [2] is listed as 158 ± 14 % control. In test [3], the “SY5Y Aβ (% control)” value stood at 142 ± 14 % control.

For `CCCCCCCCCCCCCCOc1ccc(C(=O)O)o1` [TOFA, 5-(tetradecyloxy)-2-furancarboxylic acid], in test [1], the “Aβ production / levels of Aβ” value is recorded as “mimicked” and the “Neuro2a/SEAP-APP Aβ(% control)” value was determined as 40 ± 15 % control. The “Neurons/SEAPP-APP Aβ (% control)” value in test [2] is on record as 35 ± 4 % control. Moreover, the “SY5Y Aβ (% control)” value in test [3] was 58 ± 12 % control.

“Peptide YY (3-36): gut-derived hormone affecting daily food intake”: the “Aβ production (in words)” value in test [1] (setting [5]) and in test [1] (setting [6]) was “neither peptide changed Aβ production in a statistically significant way” each time. Also, in test [1], the “Neuro2a/SEAP-APP Aβ(% control)” value is listed as 92 ± 9, NS % control. Also, the “Neurons/SEAPP-APP Aβ (% control)” value in test [2] is 98 ± 5, NS % control. In addition, in test [3], the “SY5Y Aβ (% control)” value is 96 ± 7, NS % control.

In the case of methyl-β-cyclodextrin, in test [1], the “Aβ production / levels of Aβ” value is “lowering Aβ”.

B1: RAP: Receptor Associated Protein, antagonist of a number of lipoprotein receptors (protein)
chain: YSREKNQPKPSPKRESGEEFRMEKLNQLWEKAQRLHLPPVRLAELHADLKIQERDELAWKKLKLDGLDEDGEKEARLIRNLNVILAKYGLDGKKDARQVTSNSLSGTQEDGLDDPRLEKLWHKAKTSGKFSGEELDKLWREFLHHKEKVHEYNVLLETLSRTEEIHENVISPSDLSDIKGSVLHSRHTELKEKLRSINQGLDRLRRVSHQGYSTEAEFEEPRVIDLWDLAQSANLTDKELEAFREELKHFEAKIEKHNHYQKQLEIAHEKLRHAESVGDGERVSRSREKHALLEGRTKELGYTVKKHLQDLSGRISRARHNEL
Take B1: the Aβ uptake entry in test [4] is given as “abolished uptake”.

B2: Ciliary neurotrophic factor: member of the gp130 family of cytokines regulating survival and differentiation of neurons (protein, UniProt P26441 1-200, looked up)
Ciliary neurotrophic factor: MAFTEHSPLTPHRRDLCSRSIWLARKIRSDLTALTESYVKHQGLNKNINLDSADGMPVASTDQWSELTEAERLQENLQAYRTFHVLLARLLEDQQVHFTPTEGDFHQAIHTLLLQVAAFAYQIEELMILLEYKIPRNEADGMPINVGDGGLFEKKLWGLKVLQELSQWTVRSIHDLRFISSHQTGIPARGSHYIANNKKM
Regarding B2, the “Aβ production (in words)” value in test [1] (setting [5]) and in test [1] (setting [6]) was “neither peptide changed Aβ production in a statistically significant way” throughout. The “Neuro2a/SEAP-APP Aβ(% control)” value in test [1] is on record as 95 ± 4, NS % control. Further, the “Neurons/SEAPP-APP Aβ (% control)” value in test [2] is given as 89 ± 12, NS % control. Moreover, the “SY5Y Aβ (% control)” value in test [3] is 96 ± 8, NS % control.
